Laboratory results taken from patent US20250085201A1, “SUBSTITUTED QUADRUPOLAR FLUORESCENT DYES FOR LIVE CELL IMAGING” (Northwestern University, priority 2023, published 2025).
Entries after “also recorded” stand apart in the source; their conditions may differ.

Legend:
[1] = tested on: MCF-7 breast cancer cells; experiment: Cell growth / cytotoxicity experiments (phase contrast imaging, cell number); format: cell-based; details: MCF-7 cells
Procedure: Small molecular dyes are known^86 to intercalate with the DNA on account of electrostatic and base-pair interactions. The presence of these interactions inhibits enzyme function, elevating the cytotoxicity in living cells. To test the cytotoxicity of dye 9·4Cl, (FIG. 6) a series of cell uptake and viability experiments using MCF-7 breast cancer cells were performed. […] Moreover, the cells were viable and treatments of up to 10 μM concentration are non-cytotoxic for up to 64 h post-treatment.
MCF-7 Cells were plated in a 96-well culture plate at a density of 0.01×10^6 cells per well in Dulbecco's modified eagle medium (DMEM) media with 10% fetal bovine serum (FBS) and 1% Penicillin-Streptomycin. Cells were cultured for 24 h then treated with the compounds at a range of concentrations from 0.1-50 μM. Upon treatment, cells were placed in a BioTek LionheartFX system, where they were imaged at 4× magnification every 3 h for 72 h under standard culture conditions (37° C., 5% CO2). Phase contrast images were processed and analyzed with BioTek Gen5 analysis software to identify cell number at each time point during the culture period.
MCF-7 Breast cancer cells were grown in standard Dulbecco's modified eagle medium (DMEM), which was supplemented with 10% Fetal Bovine Serum (FBS) and 1% Penicillin-Streptomycin (Corning). Cells were seeded into an 8-well imaging coverglass chamber (manufacturer-CellVis) or multiwell plate using phenol red free DMEM about 24 h prior to treatment. Dye 9·4Cl was resuspended in deionized H2O before being diluted to their final concentrations in the cell culture media. Cells were treated with the dye for 24 h prior to imaging. Uptake assays were carried out at concentrations from 1-50 μM, including a vehicle control (untreated). For the cell growth assays, cells were treated with the dye for 24 h at a range of concentrations from 0.1-50 μM.
For the cell cytotoxicity experiments, MCF-7 cells were plated in a 96-well culture plate at a density of 0.01×10^6 cells per well in DMEM media with 10% FBS and 1% Penicillin-Streptomycin. Cells were cultured for 24 h before being treated with the dye at a range of concentrations from 0.1-50 μM. After treatment, cells were placed in a BioTek LionheartFX system, where they were imaged at 4× magnification every 3 h for 72 h under standard (37° C., 5% CO2) culture conditions. Phase contrast images were processed and analyzed with BioTek Gen5 analysis software to identify cell numbers at each time point during the culture period.

[2] = Transient absorption (fsTA/nsTA) and time-resolved fluorescence spectroscopy; format: physicochemical; details: in H2O
From the text: The excited-state properties of these quadrupolar dyes were investigated using transient absorption (TA) spectroscopy. The TA data of dyes 1-4 and 6 in MeCN with lex=350 nm (FIGS. 9-12 and 15) show similar spectra with the same general electronic evolution, though with differing kinetics. Following excitation, strong excited-state absorption features appear between ˜450-500 nm along with a strong single peak in the near-infrared region, both of which are associated with Sn←S1 absorptions. The visible bands redshift over the following ˜100 ps, while the near-infrared band peaks first blueshift in the initial ˜10 ps before settling. These near-infrared absorption bands are similar to those observed^59,60 in extended bipyridinium compounds. Following these shifts, the excited states decay via emission with lifetimes between 3-4 ns as confirmed by time-resolved fluorescence (TRF) spectroscopy. The spectral shape of the transient species is generally maintained throughout their lifetimes, implying that the dynamics in each dye all occur on a single electronic excited state (S1) prior to emission. The spectral shifts at early times may arise due to excited-state symmetry breaking^77-78 in the quadrupolar dyes, wherein fluctuations in the instantaneous electrostatic environment afforded by the solvent transiently favor wavefunction localization on one side of the symmetric molecule, creating an excited state with a large dipole moment that is associated with the Stokes shift observed^79 in the fluorescence spectra. This localization can lead to changes in the transient absorption spectra as a result of the breakdown^42,80 of the Laporte rule. The shifts at longer times may arise from solvent or structural relaxation of the dyes.
Steady-state and time-resolved emission spectra for dyes 1-6, 7·2PF6 and 9·4PF6 were acquired using a HORIBA Fluorolog-3 spectrofluorometer, equipped with a time-correlated single photon counting (TCSPC) module (diode laser excitation at λ=375 nm) and an integrating sphere, which was used for absolute photo-luminescence quantum yield determinations. Picosecond time-resolved fluorescence measurements were recorded using a commercial direct-diode-pumped 100 kHz amplifier (Spirit 1040-HE, Spectra-Physics), producing a fundamental beam of 1040 nm (350 fs, 12 W) which was used to pump a non-collinear optical parametric amplifier (Spirit-NOPA, SpectraPhysics) capable of delivering tunable, high-repetition-rate pulses with pulse widths as short as sub-20 fs. Dyes 1-6, 7·2PF6 and 9·4PF6 were excited with 350 nm, 2 nJ laser pulses. Fluorescence was detected using a Hamamatsu C4780 Streakscope as previously described in the literature. Samples were prepared in 2-mm quartz cuvettes. All data were acquired in the single-photon-counting mode using the Hamamatsu HPD-TA software. The temporal resolution was approximately 2% of the sweep window. Single wavelength kinetic analysis was performed using a nonlinear least-squares fit to a sum of exponentials convoluted with an instrument response function. Visible and near-infrared femtosecond and nanosecond transient absorption (fsTA and nsTA, respectively) spectroscopies were performed following descriptions already recorded in the literature. The 330 nm, ˜100 fs pump pulses were generated at 1 μJ per pulse using a commercial collinear optical parametric amplifier (TOPAS-Prime, Light-Conversion, Ltd.); 414-nm pump pulses were obtained by second-harmonic generation of the 828 nm fundamental. The pump polarization was randomized using a commercial depolarizer (DPU-25-A, Thorlabs, Inc.) to eliminate any orientational dynamics resulting from the experiment. Spectra were collected on commercial spectrometers (customized Ultrafast Systems Helios and EOS spectrometers, for fsTA and nsTA, respectively) for each time window. All samples were stirred to avoid localized heating or degradation effects. The optical density was maintained at 0.6 for all samples. […]

[3] = Solubility (qualitative); format: physicochemical; details: Cl− salt

SMILES: COc1cc2c(OC)cc1-c1cc[n+](cc1)Cc1ccc(cc1)C[n+]1ccc(cc1)-c1cc(OC)c(cc1OC)-c1cc[n+](cc1)Cc1ccc(cc1)C[n+]1ccc-2cc1 [9·4Cl]
- cell growth ([1]; concentrations of 5 μM and above): decreases gradually
- cell death ([1]; higher concentrations (range tested up to 50 μM)): minimal cell death is observed
- growth of the cells versus non-treated control cells ([1]; low concentrations (up to 1 μM)): comparable with that of non-treated control cells
- cytotoxicity ([1]; treatments of up to 10 μM, up to 64 h post-treatment): non-cytotoxic
- rate constant k2 from TA data [2]: (188 ± 4 ps)^−1 (ps)^−1
- rate constant k3 from TA data [2]: (3.45 ± 0.01 ns)^−1 (ns)^−1
- radiative decay rate constant kR ([2]; kR = kobsΦF): (17.9 ± 0.6 ns)^−1 (ns)^−1
- solubility in H2O [3]: readily soluble; also recorded: Water soluble
